Experiments:
male gypsy moth antenna = assay: Coupled gas chromatographic-electroantennographic detection (GC-EAD); parameters: species or system Lymantria dispar; conditions: EAD peak size and shape (sharp/broad)
Summary of the method: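 GC column effluent split between flame ionization detector and an excised male moth antenna held between saline-filled glass capillary electrodes, tip removed, in a warm air stream. Antennal potentials assigned to compounds by matching retention times with FID peaks.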

L. dispar PBP 2 = assay: Pheromone-binding protein (PBP) ligand binding assay, PBP2; parameters: species or system Lymantria dispar
Experimental: A. The protein and ligand are incubated in buffer overnight. B. For half of the incubation mixture, the free ligand (L) is separated from the protein-bound ligand (P.L) by size-exclusion chromatography on P2 Gel (BioRad, exclusion limit 2000 Da). The protein elutes from the small column bed, with its ligand bound (see Examples and […] et al. 2000; Staddon and Everton 1980), while the free ligand is retained on the column ([…] et al. 2000). C. […] The extract from the filtrate (B) contains the protein-bound ligand and the extract from the incubation mixture (A) contains all the ligand (bound and free) present in the aqueous phase. The extracts are analyzed by GC-MS, to obtain values for total ligand in solution (L+P.L) and for protein-bound ligand (P.L). These can then be used to calculate % bound (Table 3). These assays were performed as described in FIG. 3 and as follows: L. dispar PBP 1 or PBP 2 was incubated with the test compound or mini-library. The PBP and the ligand(s) (L) were left to equilibrate (eq 2) overnight. The non-bound ligand was then separated from the protein-bound material (PBP.L) by size-exclusion chromatography. By determining the total ligand in solution at equilibrium (eq. 3) and the protein-bound ligand, it is possible to estimate the percentage of ligand bound to the protein at equilibrium (eq. 4). […] This binding assay has been validated extensively in previous studies ([…] et al. 2000). The components of each mini-library separated cleanly by GC, so it was possible to monitor binding of individual components. PBP+L⇄PBP·L (eq. 2) [L]tot=[L]+[PBP·L] (eq. 3) % bound=100×[PBP·L]/[L]tot (eq. 4) Results: The members of each mini-library separated cleanly by GC, therefore it was possible to monitor binding of individual members to PBP1 or PBP2, the two known PBPs in the gypsy moth, by extraction from the aqueous incubation mixture, followed by GC analysis of the extract (FIG. 3).

[1] = member tested within library 3c{1, 1-5}
[2] = member tested within library 3c{3, 1-5}, Nd = not detected in GC-MS
[3] = tested as single compound, means ± S.E., 4 replicates
[4] = member tested within library 3c{2, 1-5}

## CCCOc1ccc(OC)cc1 [3c{1,3}, 1-methoxy-4-propoxy-benzene]
Male gypsy moth antenna
  GC-EAD activity: + sharp
L. dispar PBP 2; [1]
  PBP2 (% bound): 5 ± 2.1%
L. dispar PBP 2; [2]
  PBP2 (% bound): 7 ± 0.2%

## CCCOc1ccc(OCCC)cc1 [3c{3,3}, 1,4-Dipropoxy benzene]
Male gypsy moth antenna
  GC-EAD activity: None
L. dispar PBP 2; [2]
  PBP2 (% bound): 3 ± 0.1%
L. dispar PBP 2; [3]
  PBP2 (% bound): 5 ± 0.2%

## COc1ccc(OC)cc1 [3c{1,1}, 1,4-Dimethoxy benzene]
Male gypsy moth antenna
  GC-EAD activity: + sharp
L. dispar PBP 2; [1]
  PBP2 (% bound): 19 ± 0.9%
L. dispar PBP 2; [3]
  PBP2 (% bound): 13 ± 2.1%

## CC(C)CCOc1ccc(OCCC(C)C)cc1 [3c{5,5}, 1,4-Di-(3-methyl-butyloxy) benzene]
Male gypsy moth antenna
  GC-EAD activity: None
L. dispar PBP 2; member tested within library 3c{5, 1-5}
  PBP2 (% bound): 1 ± 0.1%
L. dispar PBP 2; [3]
  PBP2 (% bound): 8 ± 0.2%

## CCOc1ccc(OCC)cc1 [3c{2,2}, 1,4-Diethoxy benzene]
Male gypsy moth antenna
  GC-EAD activity: Trace
L. dispar PBP 2; [4]
  PBP2 (% bound): 33 ± 0.6%
L. dispar PBP 2; [3]
  PBP2 (% bound): 19 ± 0.2%

## CCCOc1ccc(OCC)cc1 [3c{2,3}, 1-ethoxy-4-propoxy benzene]
Male gypsy moth antenna
  GC-EAD activity: None
L. dispar PBP 2; [4]
  PBP2 (% bound): 22 ± 0.3%
L. dispar PBP 2; [2]
  PBP2 (% bound): 6 ± 0.2%

From patent publication US9497963B2, “Methods and compositions for control of gypsy moth, Lymantria dispar” (Simon Fraser University, priority 2008, dated 2016)
